# Experimental data taken from patent US20230287083A1, “CD1 PEPTIDE-EPITOPE FOR USE IN THE TREATMENT OF A DISEASE CAUSED BY AN INT[…]” (priority 2020, published 2023).
# Residues, ends and D or L forms follow the SMILES beside them.
# Legend:
# HSV = experiment: Cellular immune response towards live-attenuated HSV vaccine after peptide pre-immunization; assay type: in vivo, BALB/c mice; conditions: one month after last injection
# Method: BALB/c mice are immunized in footpath with 100 μg of peptide of SEQ ID NO:5 emulsified in complete Freund's adjuvant, and this injection is repeated once after an interval of 2 weeks, the second injection being made in incomplete Freund's adjuvant. A control group of BALB/c mice is treated with adjuvant alone.
# All mice then receive a commercial preparation of live-attenuated HSV on 2 occasions separated by one month.
# One month after the last injection, the immune response towards the vaccine is compared between the 2 groups.
# NS5 [1] = experiment: NS5-specific activation of splenic CD3+ lymphocytes (3H-thymidine incorporation) after peptide pre-injection and NS5 vaccination; assay type: in vivo, C57BL/6 mice
# Method: (§1) Peptide of SEQ ID NO:1 is emulsified in complete Freund's adjuvant and injected subcutaneously at a dose of 100 μg in a series of C57BL/6 mice, followed after 2 weeks by the same injection in incomplete Freund's adjuvant. A control group is injected according to the same schedule with adjuvant alone.
# (§2) Two weeks after the last injection both groups of mice are treated by a subcutaneous injection of NS5 protein in alum, repeated every 2 weeks four times.
# (§3) The spleen of all mice is obtained one month after the last injection and the population of CD3+ lymphocytes isolated by FACS sorting.
# Cells are then maintained in culture in the presence of antigen-presenting cells loaded with NS5 and the proportion of activated cells numbered after 6 days by incorporation of 3H-thymidine.
# NS5 [2] = experiment: Detection of NS5-specific NKT cells (PLZF staining) with JAWS2 presenting cells; assay type: in vivo, C57BL/6 mice; conditions: CD3+ cells incubated with JAWS2 presenting cells
# Method: as §1, §2, §3
# In parallel experiments CD3+ cells are incubated with JAWS2 as presenting cells.
# NS5 [3] = experiment: Same NS5 experiment repeated in BALB/c mice; assay type: in vivo
# SARS-CoV-2 S protein [4] = experiment: Splenocyte immune response towards S protein after peptide pretreatment and S protein immunization; assay type: in vivo, C57BL/6 mice
# Method: (§4) Peptide of SEQ ID NO:3 is used to immunize C57BL/6 mice at a dose of 100 μg emulsified in complete Freund's adjuvant, followed by a second injection of 100 μg in incomplete Freund's adjuvant 3 weeks later. A control group receives only the adjuvant.
# (§5) Both groups of mice are then immunized with 100 μg of S protein in alum, administered at 2-week intervals, starting 3 weeks after injection of peptide of SEQ ID NO:3 (or adjuvant), for a total of 4 injections at 2 weeks interval.
# (§6) The immune response towards S protein is then evaluated on splenocytes retrieved either 2 or 6 months after the last injection and titers of specific antibodies are evaluated on serum.
# SARS-CoV-2 S protein [5] = experiment: Specific anti-S protein antibody titers and isotypes in serum; assay type: in vivo, C57BL/6 mice; conditions: for specific anti-S protein antibody titers: vs control
# Method: as §4, §5, §6
# Coxsackie B4-V = Coxsackie B4-V infection, pancreas cellular infiltration / pancreatitis; assay type: in vivo, BALB/c mice
# Method: BALB/c mice are immunized by footpath injection of 100 μg of peptide of SEQ ID NO:2 emulsified in Freund's adjuvant, on 2 occasions at a 2-weeks interval. A control group is injected with the adjuvant alone.
# All mice are then immunized with the full polyprotein adsorbed on alum, using 100 μg per injection, for a total of 4 injections administered at an interval of 2 weeks.
# Three weeks after the last injection, all mice are infected with 50 PFU of the B4-V strains in peritoneum.
# Within 3 days after infection, the pancreas of 50% of the mice is isolated and examined for cellular infiltration. All mice in the control group show massive infiltration by mononuclear cells in the acini.
# [6] = test system: hemagglutinin from influenza A virus; parameters: species or system C57BL/6 mice; conditions: mouse, in vivo
# [7] = test system: hemagglutinin from influenza A virus; parameters: species or system C57BL/6 mice; conditions: mouse, in vivo; remark: listed apart in the source
# [8] = test system: hemagglutinin from influenza A virus; parameters: species or system C57BL/6 mice; conditions: mouse, in vivo; remark: listed apart in the source
# [9] = C57BL/6, vs adjuvant-only control
compound,measurement,setting,value
"CC(C)C[C@H](NC(=O)[C@H](Cc1c[nH]cn1)NC(=O)[C@H](CC(C)C)NC(=O)[C@H](Cc1ccccc1)NC(=O)[C@H](CC(C)C)NC(=O)[C@@H](N)C(C)C)C(=O)N[C@@H](Cc1ccc(O)cc1)C(=O)N[C@@H](CC(C)C)C(=O)N[C@@H](Cc1ccccc1)C(=O)N[C@@H](CC(C)C)C(=O)N[C@H](C(=O)O)[C@@H](C)O [peptide of SEQ ID NO:5, VL-FLHLYLF-LT] (H-VLFLHLYLFLT-OH)","cells sharing a cytotoxicity potential (CD8+ T cells, NK cells, NKT cells)",HSV,significant expansion
AG-HGQVDNF-SL [peptide of SEQ ID NO:1],total number of NS5-specific cells,"NS5 [1]; C57BL/6, 100 μg peptide s.c. in CFA then IFA before NS5 in alum, vs adjuvant-only control",significantly higher
same,number of NS5-specific CD4 cells,NS5 [1]; [9],higher number is observed
same,number of NS5-specific CD8 cells,NS5 [1]; [9],highly significant
same,"variation in numbers of CD4, CD8 and NKT cells between individuals and between strains","NS5 [1]; C57BL/6 and BALB/c, large variations in control groups",very little variation
same,NS5-specific NKT cells detected by PLZF staining,NS5 [2],found only in the group of mice which has been pre-sensitized with peptide of SEQ ID NO:1
same,result of the same experiment in BALB/c mice,NS5 [3],essentially the same results
ATR FASVYAW NRK (FASVYAWNRK) [peptide of SEQ ID NO:3],number of CD8+ T cells relative to CD4+ T cells,"SARS-CoV-2 S protein [4]; 2 months after last injection, reverse in control group",outweigh the number of CD4+ T cells
same,number of CD8+ T cells relative to CD4+ T cells,SARS-CoV-2 S protein [4]; 6 months after last injection,same trend towards preferential CD8+ T cells
same,numbers of CD3+ lymphocytes towards protein S,SARS-CoV-2 S protein [4]; vs control mice,significantly higher numbers
same,specific anti-S protein antibody titers,SARS-CoV-2 S protein [5]; 2 months after end of immunization,significantly higher titers
same,isotypic distribution of anti-S protein antibodies,"SARS-CoV-2 S protein [5]; 2 months, vs control group",dramatic shift from IgG1 in the control group towards IgG2a
same,specific anti-S protein antibody titers,SARS-CoV-2 S protein [5]; 6 months after end of immunization,significantly higher titers
same,isotypic distribution of anti-S protein antibodies,SARS-CoV-2 S protein [5]; after 6 months,shift was maintained
EK-FRDIRGF-LA [peptide of SEQ ID NO:2],pancreatitis signs,"Coxsackie B4-V; day 10 after infection, control: persisting infiltration, disappearance of acini structure",complete resolution of pancreatitis signs
same,pancreas cellular infiltration by mononuclear cells in the acini,"Coxsackie B4-V; within 3 days after infection with 50 PFU B4-V, control: massive infiltration",moderate infiltration
GL-FGAIAGF-IE [peptide of SEQ ID NO:4],isotype distribution of anti-hemagglutinin antibodies in serum,[6],high concentrations of IgG2a
same,"type of immune response towards hemagglutinin (CD8+, NK and NKT cells)",[7],dominated by a Th1-like and cytotoxic response
same,ratio of IFN-gamma over IL-4 production,[8],high ratio of IFN-gamma over IL-4
